Measured values taken from patent US8193175B2, “Ruthenium complexes for treating cancers” (Universite de Strasbourg, priority 2004, dated 2012).
Entries after “also recorded” stand apart in the source; their conditions may differ.

Experiments:
[1] = tested on: RDM4 cells; assay: Chemo-radiotherapeutic association on RDM4 cells (cell counting, propidium iodure apoptosis); format: cell-based, mouse; details: for proliferation of non-irradiated RDM4 cells (cell counting): cisplatinum 0.7 μM, ruthenium derivative 10 μM, no irradiation; for proliferation of RDM4 cells, compound plus ionising radiation: 4 Gy rapid neutrons plus compound 11 (10 μM)
Protocol: Cells of this same line are treated with concentrations of 0.7 μM cisplatinum and 15 μM complex 11. 24 hours after the start of the treatment, the cells are irradiated at 4 Gy with rapid neutrons. The effects of the chemo-radiotherapeutic association are then determined by simple cell counting, measuring the concentration of cells in the medium during treatment 24 hrs, 72 hrs and 168 hrs after irradiation.
Evaluation of the effects of a combined “ionising radiation+RDC-11” treatment upon proliferation and survival of the RDM4 murine cells. These cells originate from an AKR mouse lymphoma. The different tests were carried out in vitro, and five independent experiments were carried out.
The radiations used were rapid neutrons originating from the collision of 65 MeV protons on a Beryllium target (produced at the Cyclotron, Louvain la Neuve (LLN) in Belgium). The results of just one of these experiments which is representative of a set of three experiments carried out with this type of radiation are shown.
The RDM4 cells are adjusted to 50,000 cells/ml, in RPMI 1640 culture medium to which 10% foetal calf serum is added. 4 25 cm2 culture flasks are filled with cell suspension, at the rate of 10 ml/flask, i.e. 500,000 cells/flask.
Four flasks are prepared thus, each corresponding to a different experimental group: • Group 1: non-irradiated, untreated cells (Et/NI in FIG. 9) • Group 2: non-irradiated cells, treated with RDC-11 (RDC-11/NI in FIG. 9) • Group 3: irradiated, non-treated cells (Et/4 Gy in FIG. 9) • Group 4: irradiated cells, treated with RDC-11 (RDC-11/4 Gy in FIG. 9)
RDC-11, prepared from an ethanolic solution, is added to the cells (flask 2 and 4) 6 hours before irradiation. An identical volume of ethanol (Et, 66 μl) is added to flasks 1 and 3. The final concentration of RDC-11 is 10 μM, and the medium is not replaced over the 9 days of the experiment.
Flasks 3 and 4 are irradiated with 4 Gy, at ambient temperature, then returned to culture at 37° C.
On the days following irradiation, aliquots of cell suspensions are regularly taken. The number of cells is determined using a Coulter Counter. Other cells are fixed in ethanol, then marked with propidium iodure, in order to determined the percentage apoptosis.

[2] = tested on: HL-60; assay: Proliferation test (UptiBlue) on HL-60; format: cell-based, human
Protocol: The products are tested on different cell lines. The cells used are RDM4 from a murine T lymphoma and a MOLT-4 line originating from an acute lymphoblastic leukemia. These cancer lines both express the p53 protein, unlike the HL-60 cells from a human promyelocytary leukemia where, following deletion of its gene, p53 is absent.
(§1) All of these cells are cultivated in RPMI 1640-Glutamax, supplemented by 10% calf foetal serum heat inactivated at 56° C. for 30 minutes, 1 mM sodium pyruvate, 1 mM non-essential amino acids and 50 μg/mL gentamycine (Life Technologies, Cergy Pontoise, France). The cultures are kept in an incubator at 37° C. with a moisture saturated atmosphere, with 5% CO2.
(§2) This test uses the UptiBlue reagent (Interchim, Montluçon, France), metabolised by the living cells. The cells are incubated on plates with 96 wells with 10^4 cells/well (200 μL) with the product and cultivated for 72 hours. Then, 20 μL UptiBlue are added to each well. After 3 hours incubation, the fluorescence of the samples contained in the plates is measured at 590 nm (excitation at 560 nm), using a Fluorolite 1000 microplate reader (Dynex technologies, Issy-Les-Moulineaux, France).
This sensitivity is reversed with the Ru complex. […] These latter, which have a normal p53 gene, are less sensitive to the Ru complex. […]

[3] = tested on: TK6 and NH32 lines; assay: Compared proliferation of lines TK6 and NH32; format: cell-based, human
Protocol: The influence of the p53 protein upon the effects induced by the products was determined by using the human lymphoblastoid line TK6 (p53 wild-type) and its NH32 variant of which the p53 gene was totally inactivated by double homologous recombination (Chuang et al, 1999). The TK6 cells originate from the American Tissue Culture Collection (ATGC, Manassas, Va., USA). The NH32 cells were supplied by H. L. Liber (Chuang et al, 1999).
as §1
as §2, with “France). […]” for “France).”

[4] = tested on: U-87 cells (a human glioblastoma); assay: In vivo test, U-87 cells grafted onto nude/nude SWISS mice; details: 18.5 mg/Kg intraperitoneally per injection, accumulated dose 185 mg/Kg
Protocol: The animals are manipulated under a laminar flow hood. Ten nude/nude (athymic) eleven week old SWISS mice were grafted subcutaneously with U-87 cells (a human glioblastoma) on the left thigh. After 7 days, the tumours become apparent and treatment commences. The animals are separated into two groups of five, 5 mice are thus treated with D-PBS (control mice) and the 5 others with RDC-11 (treated mice).
For the treated mice, 2 mg of RDC-11 placed in solution in 4 mL hot D-PBS for each injection. 0.5 mL of this solution cooled down to ambient temperature is administered intraperitoneally to each mouse. For the control mice, 0.5 mL D-PBS at ambient temperature is administered in the same way.
The dose of RDC-11 injected is 18.5 mg/Kg mouse. The accumulated dose is therefore 185 mg/Kg.
The development of the apparent tumours was followed by measuring them with calipers, by weighing the mice and by scanning one mouse from each batch with a CT-scan after injecting a contrast product (Fenestra VC). The mice were individualised by a mark on the ear.
The volume of the apparent tumours was calculated according to the formula:
V=(4/3)*π*(L/2)*(I/2)^2 where L is the length and I the width measured.

| Molecule | proliferation of non-irradiated RDM4 cells (cell counting) [1] | IC50 ([2]; p53-deficient line) | proliferation of TK6 (p53 wild-type) compared with NH32 (p53-/-) [3] | proliferation of RDM4 cells, compound plus ionising radiation [1] | proliferation of RDM4 cells, compound plus ionising radiation ([1]; listed as RDC-11) | effect of the combination with irradiation ([1]; RDC-11 10 μM plus 4 Gy) | percentage of cells in apoptosis (propidium iodure), co-treatment ([1]; RDC-11 10 μM plus 4 Gy, three days after start) | toxicity in grafted mice [4] | weight and volume of the tumours / tumoral growth ([4]; listed as RDC-11) | growth inhibition, HL-60 compared with MOLT-4 ([2]; p53-deficient HL-60 vs MOLT-4 with normal p53) |
| --- | --- | --- | --- | --- | --- | --- | --- | --- | --- | --- |
| N.N.[Cl][Pt][Cl] [Cisplatinum, reference compound] | inhibits proliferation more effectively than the ruthenium derivative | 1000 nM | more significant effect upon the p53+/+ cells than upon the p53-deficient cells | – | – | – | – | – | – | – |
| [Ru(C6H4-2-C5H4N)(phen)(NCMe)2]PF6 [Compound 11] | negligible | – | can be superposed | cell proliferation practically zero | cell growth is significantly slowed down | supra-additive effect | greater than the sum of treatments taken separately | without any toxicity | less in relation to the controls; also recorded: changes the nature of tumoral growth | more significant for HL-60s than for MOLT-4s |
